Assay results as given in patent publication US20250289802A1, “3-(1-OXO-5-(PIPERIDIN-4-YL)ISOINDOLIN-2-YL)PIPERIDINE-2,6-DIONE DERIVATIVES AND USES THEREOF” (NOVARTIS AG, priority 2019, published 2025).
Read-outs that look alike come from different tables or passages of the source.

Experiments:
[1] = molecular target: IKZF2 (Helios) (Homo sapiens, UniProt Q96SW2+Q9UKS7); experiment: Prolabel quantification of IKZF2 protein levels in 293GT cells; format: cell-based
Procedure: The Prolabel system from DiscoverX was used to develop high-throughput and quantitative assays to measure changes in IKZF1 and IKZF2 protein levels in response to compounds. The prolabel tag was derived from the alpha fragment of beta galactosidase and has the following protein sequence: mssnslavvlqrrdwenpgvtglnrlaahppfaswrnseeartdrpsqqlrsinge. The complementary fragment of beta-galactosidase (from DiscoverX), is added to the prolabel tag to form an active beta galactosidase enzyme whose activity can be precisely measured. In this way, the levels of a fusion protein with the prolabel tag can be quantified in cell lysates.
Lentiviral vectors, based on the Invitrogen pLenti6.2/V5 DEST backbone, were constructed that placed the prolabel tag upstream of IKZF1, IKZF2 or GSPT1 and expressed the fusion protein from a CMV promoter.
To ensure moderate and consistent expression of the prolabel fusion proteins across all cells in the population, stable cell lines were constructed from cells expressing a single copy of the construct. Lentivirus packaged with the constructs was made using the Virapower kit from Invitrogen.
The levels of prolabel tagged fusion proteins in compound treated cell lines were measured as follows: Day 1, Cells were diluted to 1.0×10^6 cells/ml in normal growth medium. 17.5 μL of cells were plated in each well of a solid white 384 well plate. Plates were incubated overnight in a 37° C. tissue culture incubator.
Day 2, Serial dilutions of compounds were made in 384 well plates from 10 mM stocks. 15 μL of DMSO was added to each well of a 384 well plate. In the first column, 15 μL of stock compound was added. The solution was mixed and 15 μL was transferred to the next column. This was repeated until 20 two-fold dilutions were prepared. 2.5 μL of diluted compounds were transferred into 60 μL of cell culture medium in another 384 well plate, and mixed well. 2.5 μL of this mixture was added to the plated cells. The final DMSO concentration was 0.5% and the highest concentration of compound was 50 μM. Plates were incubated overnight (e.g., about 14 h, 18 h, or 24 h) in a 37° C. tissue culture incubator.
Day 3, Plates were removed from the incubator and allowed to equilibrate at rt for 30 minutes. Prolabel substrate (DiscoverX PathHunter Prolabel Detection Kit, User manual: 93-0180) was added as described by the manufacturers protocols. Plates were incubated at rt for three hours and luminescence was read using an Envision reader (Perkin Elmer) Data was analyzed and visualized using the Spotfire software package.

[2] = molecular target: T1, human TGF-β2 (Homo sapiens, UniProt P61812); settings: Biacore; cited from earlier work
T1 sequence (P61812 303-414 limits assumed): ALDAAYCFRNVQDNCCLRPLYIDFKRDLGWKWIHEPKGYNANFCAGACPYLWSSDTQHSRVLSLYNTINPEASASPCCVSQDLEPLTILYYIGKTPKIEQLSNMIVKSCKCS

[3] = molecular target: T2, human TGF-β3 (Homo sapiens, UniProt P10600); settings: Biacore; cited from earlier work
T2 sequence (P10600 301-412 limits assumed): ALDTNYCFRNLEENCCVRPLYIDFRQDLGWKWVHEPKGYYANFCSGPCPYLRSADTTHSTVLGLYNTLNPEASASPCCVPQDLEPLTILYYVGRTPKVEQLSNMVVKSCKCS

Chain of IKZF2 (Helios) (Q9UKS7 whole entry, the tested form may be a part): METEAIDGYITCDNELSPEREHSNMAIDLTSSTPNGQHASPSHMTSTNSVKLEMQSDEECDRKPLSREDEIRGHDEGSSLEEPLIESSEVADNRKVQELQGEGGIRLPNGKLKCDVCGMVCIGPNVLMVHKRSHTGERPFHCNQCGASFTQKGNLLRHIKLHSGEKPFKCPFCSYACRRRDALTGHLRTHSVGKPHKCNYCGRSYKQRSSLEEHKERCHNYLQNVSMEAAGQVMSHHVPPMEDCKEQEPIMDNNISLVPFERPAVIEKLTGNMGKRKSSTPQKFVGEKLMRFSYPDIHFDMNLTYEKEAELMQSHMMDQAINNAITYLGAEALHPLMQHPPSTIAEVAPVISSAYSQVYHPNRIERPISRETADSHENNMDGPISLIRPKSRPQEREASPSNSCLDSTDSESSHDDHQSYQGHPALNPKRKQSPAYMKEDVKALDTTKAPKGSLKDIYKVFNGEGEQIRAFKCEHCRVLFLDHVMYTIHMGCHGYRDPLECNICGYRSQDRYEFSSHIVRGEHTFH
Chain of IKZF2 (Helios) (Q96SW2 whole entry, the tested form may be a part): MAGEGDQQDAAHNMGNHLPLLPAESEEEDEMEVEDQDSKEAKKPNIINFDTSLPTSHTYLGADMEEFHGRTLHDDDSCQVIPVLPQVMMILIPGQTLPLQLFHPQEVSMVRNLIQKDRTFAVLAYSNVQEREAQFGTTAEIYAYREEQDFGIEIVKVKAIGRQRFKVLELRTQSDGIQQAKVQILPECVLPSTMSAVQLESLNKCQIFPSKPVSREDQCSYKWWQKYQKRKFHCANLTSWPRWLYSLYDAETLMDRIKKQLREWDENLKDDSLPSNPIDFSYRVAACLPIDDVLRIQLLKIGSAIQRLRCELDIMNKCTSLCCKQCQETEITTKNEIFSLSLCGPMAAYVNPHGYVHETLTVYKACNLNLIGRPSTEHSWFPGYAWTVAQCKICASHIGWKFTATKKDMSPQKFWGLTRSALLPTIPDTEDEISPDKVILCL
Chain of IKZF2 (Helios) (Q16531 whole entry partner, the tested form may be a part): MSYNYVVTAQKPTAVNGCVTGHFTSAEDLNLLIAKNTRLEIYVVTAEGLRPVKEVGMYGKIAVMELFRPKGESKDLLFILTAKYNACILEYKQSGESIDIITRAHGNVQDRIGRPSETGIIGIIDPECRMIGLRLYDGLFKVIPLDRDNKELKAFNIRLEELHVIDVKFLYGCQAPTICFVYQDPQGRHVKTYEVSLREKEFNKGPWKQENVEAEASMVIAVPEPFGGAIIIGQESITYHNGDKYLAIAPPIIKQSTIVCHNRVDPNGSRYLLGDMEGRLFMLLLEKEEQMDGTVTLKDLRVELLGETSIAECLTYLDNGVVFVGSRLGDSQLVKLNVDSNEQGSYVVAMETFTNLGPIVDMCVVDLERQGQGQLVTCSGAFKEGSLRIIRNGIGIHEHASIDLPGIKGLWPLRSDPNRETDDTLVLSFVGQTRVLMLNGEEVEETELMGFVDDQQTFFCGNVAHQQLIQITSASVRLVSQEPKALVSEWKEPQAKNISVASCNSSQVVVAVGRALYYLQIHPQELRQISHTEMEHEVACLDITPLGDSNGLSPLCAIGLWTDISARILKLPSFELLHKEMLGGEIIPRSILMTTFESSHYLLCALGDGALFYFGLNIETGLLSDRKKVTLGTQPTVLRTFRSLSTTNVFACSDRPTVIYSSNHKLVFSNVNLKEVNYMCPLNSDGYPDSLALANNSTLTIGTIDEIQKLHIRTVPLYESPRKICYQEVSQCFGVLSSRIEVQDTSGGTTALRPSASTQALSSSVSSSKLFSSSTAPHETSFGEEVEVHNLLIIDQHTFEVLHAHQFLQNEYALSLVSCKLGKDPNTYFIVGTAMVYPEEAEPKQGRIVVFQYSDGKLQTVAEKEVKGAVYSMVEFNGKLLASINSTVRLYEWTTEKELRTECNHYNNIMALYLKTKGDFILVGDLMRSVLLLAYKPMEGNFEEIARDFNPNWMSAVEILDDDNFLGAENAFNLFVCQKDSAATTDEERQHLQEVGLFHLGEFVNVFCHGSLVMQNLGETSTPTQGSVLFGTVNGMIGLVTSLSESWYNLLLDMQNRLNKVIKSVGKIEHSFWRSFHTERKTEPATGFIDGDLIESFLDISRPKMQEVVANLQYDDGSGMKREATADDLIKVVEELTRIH

| IKZF2 % protein reduction at 10 μM, 24 h ([1]; 10 μM, 24 h, 293GT cells) | Compound | other results |
| --- | --- | --- |
|  | O=C1CCC(N2Cc3cc(C4CCN(Cc5ccc(=O)[nH]c5)CC4)ccc3C2=O)C(=O)N1 (centres unmarked) [Compound I-1, 3-(1-oxo-5-(1-((6-oxo-1,6-dihydropyridin-3-yl)methyl)piperidin-4-yl)isoindolin-2-yl)piperidine-2,6-dione] | IKZF2 % protein reduction at 10 μM, 24 h [1]: 70% |
|  | CC1CC(c2ccc3c(c2)CN(C2CCC(=O)NC2=O)C3=O)CC(C)N1Cc1ccccc1 (centres unmarked) [Compound I-2, 3-(5-(1-benzyl-2,6-dimethylpiperidin-4-yl)-1-oxoisoindolin-2-yl)piperidine-2,6-dione] | IKZF2 % protein reduction at 30 uM [1]: 35% at |
| 60% | N#C[C@H]1CC[C@H](CN2CCC(c3ccc4c(c3)CN(C3CCC(=O)NC3=O)C4=O)CC2)CC1 (some centres unmarked) [Compound I-3, (1r,4r)-4-((4-(2-(2,6-dioxopiperidin-3-yl)-1-oxoisoindolin-5-yl)piperidin-1-yl)methyl)cyclohexane-1-carbonitrile] |  |
| 60% | CCOc1ccc(CN2CCC(c3ccc4c(c3)CN(C3CCC(=O)NC3=O)C4=O)CC2)nc1 (centres unmarked) [Compound I-5, 3-(5-(1-((5-ethoxypyridin-2-yl)methyl)piperidin-4-yl)-1-oxoisoindolin-2-yl)piperidine-2,6-dione] |  |
| 50% | COc1ccc(CN2CCC(c3ccc4c(c3)CN(C3CCC(=O)NC3=O)C4=O)CC2)nc1 (centres unmarked) [Compound I-6, 3-(5-(1-((5-methoxypyridin-2-yl)methyl)piperidin-4-yl)-1-oxoisoindolin-2-yl)piperidine-2,6-dione] |  |
| 80% | COc1ccc(CN2CCC(c3ccc4c(c3)CN(C3CCC(=O)NC3=O)C4=O)CC2)cn1 (centres unmarked) [Compound I-7, 3-(5-(1-((6-methoxypyridin-3-yl)methyl)piperidin-4-yl)-1-oxoisoindolin-2-yl)piperidine-2,6-dione] |  |
| 70% | CCOc1ccc(CN2CCC(c3ccc4c(c3)CN(C3CCC(=O)NC3=O)C4=O)CC2)cn1 (centres unmarked) [Compound I-8, 3-(5-(1-((6-ethoxypyridin-3-yl)methyl)piperidin-4-yl)-1-oxoisoindolin-2-yl)piperidine-2,6-dione] |  |
| 75% | O=C1CCC(N2Cc3cc(C4CCN(CC5CCC(CF)CC5)CC4)ccc3C2=O)C(=O)N1 (centres unmarked) [Compound I-10, 3-(5-(1-((4-(fluoromethyl)cyclohexyl)methyl)piperidin-4-yl)-1-oxoisoindolin-2-yl)piperidine-2,6-dione] |  |
| 60% | O=C1CCC(N2Cc3cc(C4CCN(CCn5cccn5)CC4)ccc3C2=O)C(=O)N1 (centres unmarked) [Compound I-11, 3-(5-(1-(2-(1H-pyrazol-1-yl)ethyl)piperidin-4-yl)-1-oxoisoindolin-2-yl)piperidine-2,6-dione] |  |
| 80% | CC1=CCC(CN2CCC(c3ccc4c(c3)CN(C3CCC(=O)NC3=O)C4=O)CC2)CC1 (centres unmarked) [Compound I-13, 3-(5-(1-((4-methylcyclohex-3-en-1-yl)methyl)piperidin-4-yl)-1-oxoisoindolin-2-yl)piperidine-2,6-dione] |  |
| 55% | O=C1CCC(N2Cc3cc(C4CCN(Cc5cnccn5)CC4)ccc3C2=O)C(=O)N1 (centres unmarked) [Compound I-14, 3-(1-oxo-5-(1-(pyrazin-2-ylmethyl)piperidin-4-yl)isoindolin-2-yl)piperidine-2,6-dione] |  |
| 40% | O=C1CCC(N2Cc3cc(C4CCN(Cc5cccnn5)CC4)ccc3C2=O)C(=O)N1 (centres unmarked) [Compound I-15, 3-(1-oxo-5-(1-(pyridazin-3-ylmethyl)piperidin-4-yl)isoindolin-2-yl)piperidine-2,6-dione] |  |
| 50% | O=C1CCC(N2Cc3cc(C4CCN(Cc5ccncn5)CC4)ccc3C2=O)C(=O)N1 (centres unmarked) [Compound I-16, 3-(1-oxo-5-(1-(pyrimidin-4-ylmethyl)piperidin-4-yl)isoindolin-2-yl)piperidine-2,6-dione] |  |
| 50% | Cc1ncc(CN2CCC(c3ccc4c(c3)CN(C3CCC(=O)NC3=O)C4=O)CC2)cn1 (centres unmarked) [Compound I-17, 3-(5-(1-((2-methylpyrimidin-5-yl)methyl)piperidin-4-yl)-1-oxoisoindolin-2-yl)piperidine-2,6-dione] |  |
| 40% | O=C1CCC(N2Cc3cc(C4CCN(Cc5ccnnc5)CC4)ccc3C2=O)C(=O)N1 (centres unmarked) [Compound I-18, 3-(1-oxo-5-(1-(pyridazin-4-ylmethyl)piperidin-4-yl)isoindolin-2-yl)piperidine-2,6-dione] |  |
| 80% | CC(C1CCOCC1)N1CCC(c2ccc3c(c2)CN(C2CCC(=O)NC2=O)C3=O)CC1 (centres unmarked) [Compound I-30, 3-(1-oxo-5-(1-(1-(tetrahydro-2H-pyran-4-yl)ethyl)piperidin-4-yl)isoindolin-2-yl)piperidine-2,6-dione] |  |
| 70% | CCn1cc(C(C)N2CCC(c3ccc4c(c3)CN(C3CCC(=O)NC3=O)C4=O)CC2)cn1 (centres unmarked) [Compound I-31, 3-(5-(1-(1-(1-ethyl-1H-pyrazol-4-yl)ethyl)piperidin-4-yl)-1-oxoisoindolin-2-yl)piperidine-2,6-dione] |  |
| 62% | CCC(c1cnn(CC)c1)N1CCC(c2ccc3c(c2)CN(C2CCC(=O)NC2=O)C3=O)CC1 (centres unmarked) [Compound I-32, 3-(5-(1-(1-(1-ethyl-1H-pyrazol-4-yl)propyl)piperidin-4-yl)-1-oxoisoindolin-2-yl)piperidine-2,6-dione] |  |
| 62% | CCC(c1cnccn1)N1CCC(c2ccc3c(c2)CN(C2CCC(=O)NC2=O)C3=O)CC1 (centres unmarked) [Compound I-33, 3-(1-oxo-5-(1-(1-(pyrazin-2-yl)propyl)piperidin-4-yl)isoindolin-2-yl)piperidine-2,6-dione] |  |
| 80% | O=C1CCC(N2Cc3cc(C4CCN(C5CCc6ncccc65)CC4)ccc3C2=O)C(=O)N1 (centres unmarked) [Compound I-35, 3-(5-(1-(6,7-dihydro-5H-cyclopenta[b]pyridin-5-yl)piperidin-4-yl)-1-oxoisoindolin-2-yl)piperidine-2,6-dione] |  |
| 74% | COC1CCC(N2CCC(c3ccc4c(c3)CN(C3CCC(=O)NC3=O)C4=O)CC2)CC1 (centres unmarked) [Compound I-36, 3-(5-(1-(4-methoxycyclohexyl)piperidin-4-yl)-1-oxoisoindolin-2-yl)piperidine-2,6-dione] |  |
|  | XOMA 089: fully human monoclonal antibody that specifically binds and neutralizes TGF-beta 1 and 2 ligands | Kd [2]: 67.3 µM; Kd [3]: 948 µM |
